Data published in the NIST ThermoML archive (doi:10.1021/je700260f).

Conditions: 313.15 K, Liquid, Vibrating tube method

FC(C(F)(F)F)C(F)(F)F [1,1,1,2,3,3,3-heptafluoropropane]
Conditions | mass density [kg/m3]
20571 kPa | 1453
20603 kPa | 1453
20639 kPa | 1453.2
20675 kPa | 1453.5
20721 kPa | 1453.6
20757 kPa | 1453.8
20799 kPa | 1454.1
20826 kPa | 1454.2
20865 kPa | 1454.4
20902 kPa | 1454.4
20933 kPa | 1454.7
20969 kPa | 1454.7
21003 kPa | 1454.9
21049 kPa | 1455
21080 kPa | 1455.2
21213 kPa | 1455.8
21240 kPa | 1455.9
21275 kPa | 1456
21319 kPa | 1456.3
21355 kPa | 1456.5
21405 kPa | 1456.7
21435 kPa | 1456.8
21466 kPa | 1456.9
21512 kPa | 1457.1
21547 kPa | 1457.2
21593 kPa | 1457.5
21628 kPa | 1457.6
21665 kPa | 1457.8
21700 kPa | 1457.8
21742 kPa | 1458
21776 kPa | 1458.2
21813 kPa | 1458.3
21844 kPa | 1458.5
21885 kPa | 1458.7
21927 kPa | 1458.9
21953 kPa | 1459
21990 kPa | 1459.2
22027 kPa | 1459.2
22064 kPa | 1459.5
22100 kPa | 1459.6
22131 kPa | 1459.8
22172 kPa | 1459.9
22203 kPa | 1460.1
22245 kPa | 1460.1
22276 kPa | 1460.2
22312 kPa | 1460.6
22349 kPa | 1460.5
22385 kPa | 1460.8
22411 kPa | 1460.8
22447 kPa | 1461
22489 kPa | 1461.3
22532 kPa | 1461.4
22579 kPa | 1461.6
22611 kPa | 1461.7
22653 kPa | 1461.9
22684 kPa | 1462.2
22722 kPa | 1462.2
22758 kPa | 1462.5
22796 kPa | 1462.5
22828 kPa | 1462.7
22876 kPa | 1462.9
22922 kPa | 1463.1
22954 kPa | 1463.3
22986 kPa | 1463.2
23028 kPa | 1463.7
23054 kPa | 1463.7
23096 kPa | 1463.7
23132 kPa | 1464
23180 kPa | 1464.2
23217 kPa | 1464.3
23384 kPa | 1465
23422 kPa | 1465.2
23463 kPa | 1465.3
23511 kPa | 1465.4
23548 kPa | 1465.7
23585 kPa | 1465.8
23623 kPa | 1466
23672 kPa | 1466.2
23710 kPa | 1466.2
23760 kPa | 1466.5
23805 kPa | 1466.6
23840 kPa | 1466.9
23893 kPa | 1467
23939 kPa | 1467.2
23980 kPa | 1467.2
24015 kPa | 1467.5
24073 kPa | 1467.7
24121 kPa | 1467.8
24163 kPa | 1468.1
24204 kPa | 1468.4
24258 kPa | 1468.6
24299 kPa | 1468.7
24341 kPa | 1468.9
24400 kPa | 1469.2
24441 kPa | 1469.3
24471 kPa | 1469.4
24517 kPa | 1469.5
24552 kPa | 1469.6
24586 kPa | 1469.7
24643 kPa | 1470
24690 kPa | 1470.3
24731 kPa | 1470.4
24772 kPa | 1470.6
